Patent US10941122B2, “Diaminotriazine derivatives as herbicides” (BASF SE, priority 2014, dated 2021)

Key:
[1] = tested on: AMARE; experiment: greenhouse pre-emergence herbicidal test; format: in vivo, Amaranthus retroflexus; conditions: pre-emergence method, application rate 0.250 kg/ha, scale from 0 to 100
Source text: (§1) The seeds of the test plants were sown separately for each species. For the pre-emergence treatment, the active ingredients, which had been suspended or emulsified in water, were applied directly after sowing by means of finely distributing nozzles. The containers were irrigated gently to promote germination and growth and subsequently covered with transparent plastic hoods until the plants had rooted. This cover caused uniform germination of the test plants, unless this had been impaired by the active ingredients. Depending on the species, the plants were kept at 10-25° C. or 20-35° C., respectively. The test period extended over 2 to 4 weeks. During this time, the plants were tended, and their response to the individual treatments was evaluated. Evaluation was carried out using a scale from 0 to 100. 100 means no emergence of the plants, or complete destruction of at least the aerial moieties, and 0 means no damage, or normal course of growth. A moderate herbicidal activity is given at values of at least 60, a good herbicidal activity is given at values of at least 70, and a very good herbicidal activity is given at values of at least 85. The plants used in the greenhouse experiments were of the following species: [table]

[2] = tested on: APESV; experiment: greenhouse pre-emergence herbicidal test; format: in vivo, Apera spica-venti; conditions: pre-emergence method, application rate 0.250 kg/ha, scale from 0 to 100
Source text: as §1

What does the source list for CC(C)(F)c1nc(N)nc(Nc2c(F)cccc2OC2CCCC2)n1 [Example 1, N2-[2-(Cyclopentoxy)-6-Fluoro-Phenyl]-6-(1-Fluoro-1-Methyl-Ethyl)-1,3,5-Triazine-2,4-Diamine]?
herbicidal activity against AMARE [1]: very good (a very good herbicidal activity is given at values of at least 85); herbicidal activity against APESV [2]: good (a good herbicidal activity is given at values of at least 70)
